# In PubChem BioAssay (NCI):
#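 96-well plates; 48 h exposure; 5 concentrations. Endpoints by linear interpolation between flanking doses. Not reached: highest tested concentration assigned. TGI marks complete inhibition of growth.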
# What was measured:
# Assay in all cases: NCI tumour cell line growth inhibition, 48 h
# [1] = system: NCI/ADR-RES ovarian
# [2] = system: TK-10 renal
# [3] = system: MCF7 breast
# [4] = system: IGROV1 ovarian
# [5] = system: CAKI-1 renal
# [6] = system: RPMI-8226 leukemia
# [7] = system: HL-60(TB) leukemia
# [8] = system: 786-0 renal
# [9] = system: HCT-116 colon
# [10] = system: OVCAR-8 ovarian
# [11] = system: SR leukemia
# [12] = system: NCI-H23 lung
# [13] = system: MDA-MB-231 breast
# [14] = system: A549 NSCLC
# [15] = system: SF-295 CNS
# [16] = system: SN12C renal
# [17] = system: NCI-H460 lung
# [18] = system: SK-MEL-5 melanoma
# [19] = system: HCC-2998 colon
# [20] = system: MOLT-4 leukemia
# [21] = system: RXF 393 renal
# [22] = system: SK-MEL-28 melanoma
# [23] = system: UO-31 renal
# [24] = system: UACC-257 melanoma
# [25] = system: HT29 colon
# [26] = system: PC-3 prostate
# [27] = system: BT-549 breast
# [28] = system: SW-620 colon
# [29] = system: OVCAR-3 ovarian
# [30] = system: MDA-N
# [31] = system: SF-539 CNS
# [32] = system: NCI-H522 lung
# [33] = system: LOX IMVI melanoma
# [34] = system: MDA-MB-435
# [35] = system: OVCAR-4 ovarian
# [36] = system: COLO 205 colon
# [37] = system: HOP-62 NSCLC
# [38] = system: HCT-15 colon
# [39] = system: OVCAR-5 ovarian
# [40] = system: A498 renal
# [41] = system: HS 578T breast
# [42] = system: DU-145 prostate
# [43] = system: HOP-92 NSCLC
# [44] = system: KM12 colon
# [45] = system: U251 CNS
# [46] = system: EKVX NSCLC
# [47] = system: SNB-19 CNS
# [48] = system: SK-MEL-2 melanoma
# [49] = system: NCI-H226 lung
# [50] = system: T-47D breast
# [51] = system: CCRF-CEM leukemia
# [52] = system: SF-268 CNS
# [53] = system: MALME-3M melanoma
# [54] = system: SK-OV-3 ovarian
# [55] = system: SNB-75 CNS
# [56] = system: UACC-62 melanoma
# [57] = system: M14 melanoma
# [58] = system: ACHN renal
# [59] = system: K-562 leukemia
smiles,measurement,setting,value
Clc1cccc(N=C/C=C/Nc2cccc(Cl)c2)c1,TGI,[1],31.4 µM
same,TGI,[2],> 100 µM
same,TGI,[3],43.6 µM
same,TGI,[4],39.3 µM
same,TGI,[5],65.1 µM
same,TGI,[6],> 100 µM
same,TGI,[7],39.9 µM
same,TGI,[8],37.4 µM
same,TGI,[9],28.2 µM
same,TGI,[10],38.9 µM
same,TGI,[11],62.3 µM
same,TGI,[12],54 µM
same,TGI,[13],29.4 µM
same,TGI,[14],83.9 µM
same,TGI,[15],24.4 µM
same,TGI,[16],27 µM
same,TGI,[17],35.2 µM
same,TGI,[18],44 µM
same,TGI,[19],25.2 µM
same,TGI,[20],73.2 µM
same,TGI,[21],52.5 µM
same,TGI,[22],29.6 µM
same,TGI,[23],34.2 µM
same,TGI,[24],32.2 µM
same,TGI,[25],34 µM
same,TGI,[26],28.4 µM
same,TGI,[27],33.2 µM
same,TGI,[28],43.9 µM
same,TGI,[29],45.4 µM
same,TGI,[30],26.8 µM
same,TGI,[31],34.2 µM
same,TGI,[32],29.3 µM
same,TGI,[33],20.6 µM
same,TGI,[34],28.9 µM
same,TGI,[35],> 100 µM
same,TGI,[36],29.8 µM
same,TGI,[37],30.7 µM
same,TGI,[38],37.7 µM
same,TGI,[39],59.9 µM
same,TGI,[40],49.7 µM
same,TGI,[41],> 100 µM
same,TGI,[42],96.2 µM
same,TGI,[43],> 100 µM
same,TGI,[44],27.1 µM
same,TGI,[45],30.3 µM
N#CC(=S)Nc1ccc(F)cc1,TGI,[1],> 100 µM
same,TGI,[46],> 100 µM
same,TGI,[47],> 100 µM
same,TGI,[2],> 100 µM
same,TGI,[3],> 100 µM
same,TGI,[4],> 100 µM
same,TGI,[48],> 100 µM
same,TGI,[5],> 100 µM
same,TGI,[6],41.6 µM
same,TGI,[49],> 100 µM
same,TGI,[50],> 100 µM
same,TGI,[7],91.3 µM
same,TGI,[8],> 100 µM
same,TGI,[51],54.9 µM
same,TGI,[9],> 100 µM
same,TGI,[10],> 100 µM
same,TGI,[11],> 100 µM
same,TGI,[12],> 100 µM
same,TGI,[52],> 100 µM
same,TGI,[53],> 100 µM
same,TGI,[13],> 100 µM
same,TGI,[14],> 100 µM
same,TGI,[15],> 100 µM
same,TGI,[16],> 100 µM
same,TGI,[54],> 100 µM
same,TGI,[55],> 100 µM
same,TGI,[17],> 100 µM
same,TGI,[18],75.8 µM
same,TGI,[19],> 100 µM
same,TGI,[20],> 100 µM
same,TGI,[21],> 100 µM
same,TGI,[22],> 100 µM
same,TGI,[24],> 100 µM
same,TGI,[25],> 100 µM
same,TGI,[26],> 100 µM
same,TGI,[27],> 100 µM
same,TGI,[28],> 100 µM
same,TGI,[56],> 100 µM
same,TGI,[29],> 100 µM
same,TGI,[30],> 100 µM
same,TGI,[31],> 100 µM
same,TGI,[57],> 100 µM
same,TGI,[58],> 100 µM
same,TGI,[33],> 100 µM
same,TGI,[59],> 100 µM
same,TGI,[34],> 100 µM
same,TGI,[35],> 100 µM
same,TGI,[36],> 100 µM
same,TGI,[37],> 100 µM
same,TGI,[38],> 100 µM
same,TGI,[39],> 100 µM
same,TGI,[40],90.5 µM
same,TGI,[42],> 100 µM
same,TGI,[43],68.3 µM
same,TGI,[44],> 100 µM
same,TGI,[45],> 100 µM
